# Data: patent publication US10807956B2, “Histone demethylase inhibitors” (CELGENE QUANTICEL RESEARCH, INC., priority 2012, dated 2020)
# pIC50: −log10 of the molar value.
# Molecular target: JMJD2C (Homo sapiens (Human), UniProt Q9H3R0)
# Test: JMJD2C TR-FRET enzyme inhibition assay
# Format: biochemical
# Details: H3K9me3-biotin peptide
# Description: This assay determines the ability of a test compound to inhibit Jarid1A, Jarid1B, and JMJD2C demethylase activity. Baculovirus expressed Jarid1A (GenBank Accession # NM_001042603, AA1-1090) was purchased from BPS Bioscience (Cat #50110). Baculovirus expressed Jarid1B (GenBank Accession # NM_006618, AA 2-751) was purchased from BPS Bioscience (Cat #50121) or custom made by MolecularThroughput. Baculovirus-expressed JMJD2C (GenBank Accession # BC143571, AA 2-372) was purchased from BPS Bioscience (Cat #50105).
# The ability of test compounds to inhibit the activity of JMJD2C was determined in 384-well plate format under the following reaction conditions: 0.3 nM JMJD2C, 300 nM H3K9me3-biotin labeled peptide (Anaspec cat #64360), 2 μM alpha-ketoglutaric acid in assay buffer of 50 mM HEPES, pH7.3, 0.005% Brij35, 0.5 mM TCEP, 0.2 mg/ml BSA, 50 μM sodium L-ascorbate, and 2 μM ammonium iron(II) sulfate. Reaction product was determined quantitatively by TR-FRET after the addition of detection reagent Phycolink Streptavidin-allophycocyanin (Prozyme) and Europium-anti-di-methylated histone H3 lysine 9 (H3K9me2) antibody (PerkinElmer) in the presence of 5 mM EDTA in LANCE detection buffer (PerkinElmer) at a final concentration of 50 nM and 1 nM, respectively.
# The assay reaction was initiated by the following: 2 μl of the mixture of 900 nM H3K9me3-biotin labeled peptide and 6 μM alpha-ketoglutaric acid with 2 μl of 11-point serial diluted inhibitor in 3% DMSO were added to each well of the plate, followed by the addition of 2 μl of 0.9 nM JMJD2C to initiate the reaction. The reaction mixture was incubated at room temperature for 30 min, and terminated by the addition of 6 μl of 5 mM EDTA in LANCE detection buffer containing 100 nM Phycolink Streptavidin-allophycocyanin and 2 nM Europium-anti-H3K9me2 antibody. Plates were read by EnVisionMultilabel Reader in TR-FRET mode (excitation at 320 nm, emission at 615 nm and 665 nm) after 1 hr incubation at rt. A ratio was calculated (665/615) for each well and fitted to determine inhibition constant (IC50).
# Chain of JMJD2C (Q9H3R0 2-372): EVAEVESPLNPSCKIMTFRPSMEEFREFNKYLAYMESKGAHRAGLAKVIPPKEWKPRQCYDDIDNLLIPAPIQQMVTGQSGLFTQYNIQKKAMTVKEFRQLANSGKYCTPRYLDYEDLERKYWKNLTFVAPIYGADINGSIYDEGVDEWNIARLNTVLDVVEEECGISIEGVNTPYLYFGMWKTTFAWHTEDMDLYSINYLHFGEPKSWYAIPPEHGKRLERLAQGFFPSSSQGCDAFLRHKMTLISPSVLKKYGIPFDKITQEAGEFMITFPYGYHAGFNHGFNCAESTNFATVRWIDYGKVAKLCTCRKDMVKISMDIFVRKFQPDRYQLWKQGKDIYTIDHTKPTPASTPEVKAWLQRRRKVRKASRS
row,Substance,pIC50
1,"3-{[(6-chloro-1,2,3,4-tetrahydronaphthalen-1-yl)methyl]- amino}pyridine-4-carboxylic acid [Example 68]",6.00 to 7.00
2,"3-{[(7-fluoro-3,4-dihydro-2H-chromen-4-yl)methyl]- amino}pyridine-4-carboxylic acid [Example 65]",> 7.00
3,"3-{[(6-chloro-1-hydroxy-1,2,3,4-tetrahydronaphthalen-1- yl)methyl]amino}pyridine-4-carboxylic acid [Example 67]",6.00 to 7.00
